Test results taken from patent publication US20070032505A1, “Crystalline form of gatifloxacin” (priority 2003, published 2007).
Values joined by “and” are separate entries in the source; they are usually repeats but may differ in a detail not shown here. Identical values can stand only once.

Tests used:
[1] = stability test: water content (Karl-Fischer) and powder X-ray diffractogram in contact with the atmosphere at room temperature; assay type: physicochemical
Description: The new crystalline form of gatifloxacin which is obtainable by this process has an initial water content ranging between 0.8 and 1.6% and stabilises with a water content ranging between 2.5 and 4.5% by weight, when it is in contact with the atmosphere at room temperature and with a relative humidity comprised between 20 and 70%, and it remains stable for at least 2 months in such conditions.
The crystalline form of gatifloxacin object of the present invention is characterized by its powder X-ray diffractogram (FIG. 1), ^13C nuclear magnetic resonance spectrum (FIG. 3) and analysis of water content by the Karl-Fischer method.
For recording the powder X-ray diffractograms a PHILIPS X'Pert automatic diffractometer equipped with a Cu tube and a graphite secondary monochromator of the following technical specifications was used: • Cu wavelength Kα: 1.5419 Å; • receiving slit: 0.1 mm; • Soller: 0.04 radians; • dispersion slit and divergence slit: 1°
The tube worked at 40 kV and 50 mA. Sweeping was carried out continuously in the 2θ interval between 5 and 40° with pass of 0.03° and 1-second pass time.

[2] = disintegration and dissolution rate properties; assay type: physicochemical; settings: form containing between 2.5 and 4.5% of water by weight

% water by weight ([1]; 3 hours, room temperature, in contact with the atmosphere): 2.2 % by weight
% water by weight ([1]; 6 hours, room temperature, in contact with the atmosphere): 2.3 % by weight
% water by weight ([1]; 3 days, room temperature, in contact with the atmosphere): 3.22 % by weight and 3.2 % by weight
% water by weight ([1]; 13 days, room temperature, in contact with the atmosphere): 2.9 % by weight
% water by weight ([1]; 17 days, room temperature, in contact with the atmosphere): 3.0 % by weight
% water by weight ([1]; 68 days, room temperature, in contact with the atmosphere): 3.3 % by weight
period of time to stabilise ([1]; longer if relative humidity lower than 20%): three
powder X-ray diffractogram over the stability test period ([1]; room temperature, in contact with the atmosphere, up to 68 days): remains substantially unchanged
time the water content remains stable ([1]; room temperature, relative humidity between 20 and 70%): at least 2 months
% water by weight ([1]; time 0 (at the time of taking it out of the desiccator)): 1.5 % by weight
properties of disintegration and dissolution rate [2]: excellent
Compound: COc1c(N2CCNC(C)C2)c(F)cc2c(=O)c(C(=O)O)cn(C3CC3)c12 (centres unmarked) [form I gatifloxacin, 1-cyclopropyl-6-fluoro-1,4-dihydro-ε-methoxy-7-(3-methyl-1-piperazinyl)-4-oxo-3-quinolinecarboxylic acid]
